# Assay results taken from patent US10426785B2, “C-19 steroids for inhibiting neovascularization” (priority 2014, dated 2019).
# Columns and labels:
# Type in all cases: cell-based, human
# HUVEC cells [1] = test: WST-1 proliferation assay of HUVEC cells; details: 1, 2 and 5 μM; all 3 HUVEC cell cultures; p<0.001 (t-test); FIG. 1A
# Description: All experiments were additionally run in several replicates (one HUVEC in different passages as well as different preparations.
# For determining the proliferation rates, WST-1 tests were performed. Essentially, 1000 HUVEC cells/well were seeded in a 96-well plate and exposed to the indicated concentrations of 4-OHT (also denoted by lab code CR 1447) for 5 days. Inhibition of proliferation was quantified by measuring the enzymatic cleavage of the tetrazolium salt WST-1 to formazan by cellular mitochondrial dehydrogenases as a readout for cell viability, wherein cell viability of treated cells is expressed as the percentage (%) of untreated controls containing only the solvent in appropriate concentrations.
# Cells were grown and subcultured in Endothelial Cell Growth medium (EGM) for 3 and 5 days, respectively.
# HUVEC cells [2] = test: Transwell migration assay of HUVEC cells with VEGF as attractant; details: 48 hrs, VEGF as attractant in lower chamber, compared to control, FIG. 2B
# Description: (§1) Briefly, human umbilical vein endothelial cells (in the following HUVEC) were freshly isolated out of human umbilical cords by methods known in the art and were used in the experiments from passage p4 up to passage p10 to prevent any artefacts originating from in vitro changes of the cells.
# (§2) In all experiments, the C-19 steroid compound 4-OHT was added to the cells in the indicated concentration in EGM-2 medium (Lonza) in order to avoid any artefacts originating from exogenous factors contained in the medium.
# A prerequisite of angiogenesis is the capability of endothelial cells to migrate into the tissue. This process is observed in wound healing and also in the process of tumor growth. Endothelial cells migrate into the tissue along a gradient of factors such as VEGF. This behavior can be studied in an in vitro model of migration using a transwell system, as e.g. apparent from FIG. 2A.
# For studying the migration of HUVEC cells using the transwell system with PET-membranes having a 3 μm pore size (24-wells w/o fibronectin-coating), HUVEC cells in different cell numbers were placed in the upper compartment, whereas the attractant was placed in the lower compartment. The number of cells on the attractant site of the membrane was compared with the number of cells visible in a control system (buffer control) and with the attractant (VEGF) in the presence of 4-OHT. […]
# HUVEC cells [3] = test: Wound healing (scratch) assay of HUVEC cells; details: 10 μM, FIG. 3
# Description: as §1, §2
# Another method for studying cell migration is the wound healing (scratch) assay. This assay resembles the events occurring in an acute wound healing process. By release of factors from the wound area endothelial cells migrate into the scratch area, which shall resemble the process of healing and closure of the wound by vascularization and later scar formation.
# In summary, HUVEC cells were seeded in a 12-well plate and allow to grow until reaching confluency. Subsequently, a scratch was set, thereby removing the cells within the scratch area. The cells were exposed to 10 μM of 4-OHT and the migration of endothelial cells into the scratch area was monitored microscopically using a schedule from 2 up to 48 hrs, depending on the individual experimental design. […]
# HUVEC cells [4] = test: Tube migration (tube formation) assay of HUVEC cells on matrigel; details: HUVEC on matrigel (7 mg/ml), 10 μM/L, FIG. 4
# Description: as §1, §2
# After migration into the tissue of a scratch, HUVEC cells change their growth characteristics and form microvessels. This effect can be assessed microscopically.
# HUVEC cells were seeded on matrigel (7 mg/ml). Cell suspensions as well as gels containing 10 μM/L 4-OHT were added upon seeding, It was allowed to form branching points during adherence onto this surface mimicking basal membrane character. Tube formation was analyzed microscopically after 12 and 48 hours.
# When the human endothelial cells were subjected onto matrigel pads, branching points as one marker of tube formation are inhibited by 4-OHT as compared to untreated controls (red arrows).
structure (smiles),measurement,setting,value
"C[C@]12CC[C@H]3[C@@H](CCC4=C(O)C(=O)CC[C@@]43C)[C@@H]1CC[C@@H]2O [4-OHT, 4-hydroxytestosterone]",growth inhibition (WST-1 cell viability vs untreated controls),HUVEC cells [1],highly significant
same,migration of cells into the membrane (transwell),HUVEC cells [2],significantly inhibits
same,migration of HUVEC cells into the scratch area compared to untreated control cells,HUVEC cells [3]; after 24 h,clear reduction
same,endothelial cell migration (wound-healing / scratch assay),HUVEC cells [3]; monitored 2 up to 48 hrs,effectively inhibited
same,tube formation of human endothelial cells,HUVEC cells [4]; analyzed after 12 and 48 hours,significantly inhibited
same,branching of the cells (branching points as marker of tube formation),HUVEC cells [4]; compared to untreated controls,markedly inhibited
